# In PubChem BioAssay (NCI):
#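 Cells were grown in 96-well plates and exposed to each compound for 48 hours at five concentrations; endpoints were interpolated linearly between bracketing concentrations, or set to the highest concentration if not reached. TGI marks complete inhibition of growth.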
# Columns and labels:
# Experiment in all cases: DTP human tumour cell line panel, 48 h
# UACC-257 melanoma = tested on: UACC-257 melanoma
# 786-0 renal = tested on: 786-0 renal
# TK-10 renal = tested on: TK-10 renal
# A549 NSCLC = tested on: A549 NSCLC
# SN12C renal = tested on: SN12C renal
# LOX IMVI melanoma = tested on: LOX IMVI melanoma
# NCI-H460 lung = tested on: NCI-H460 lung
# KM20L2 colon = tested on: KM20L2 colon
# K-562 leukemia = tested on: K-562 leukemia
# HCT-15 colon = tested on: HCT-15 colon
# UACC-62 melanoma = tested on: UACC-62 melanoma
# U251 CNS = tested on: U251 CNS
# HOP-62 NSCLC = tested on: HOP-62 NSCLC
# KM12 colon = tested on: KM12 colon
# SK-MEL-2 melanoma = tested on: SK-MEL-2 melanoma
# HOP-18 NSCLC = tested on: HOP-18 NSCLC
# SK-MEL-5 melanoma = tested on: SK-MEL-5 melanoma
# DMS 273 small cell lung = tested on: DMS 273 small cell lung
# COLO 205 colon = tested on: COLO 205 colon
# ACHN renal = tested on: ACHN renal
# M14 melanoma = tested on: M14 melanoma
# HCT-116 colon = tested on: HCT-116 colon
# SW-620 colon = tested on: SW-620 colon
# A498 renal = tested on: A498 renal
# CAKI-1 renal = tested on: CAKI-1 renal
# MALME-3M melanoma = tested on: MALME-3M melanoma
# IGROV1 ovarian = tested on: IGROV1 ovarian
# SF-295 CNS = tested on: SF-295 CNS
# SNB-19 CNS = tested on: SNB-19 CNS
# SF-539 CNS = tested on: SF-539 CNS
# EKVX NSCLC = tested on: EKVX NSCLC
# SF-268 CNS = tested on: SF-268 CNS
# SK-OV-3 ovarian = tested on: SK-OV-3 ovarian
# OVCAR-5 ovarian = tested on: OVCAR-5 ovarian
# RXF 393 renal = tested on: RXF 393 renal
# NCI-H522 lung = tested on: NCI-H522 lung
# SK-MEL-28 melanoma = tested on: SK-MEL-28 melanoma
# HT29 colon = tested on: HT29 colon
# SNB-75 CNS = tested on: SNB-75 CNS
# M19-MEL melanoma = tested on: M19-MEL melanoma
# HOP-92 NSCLC = tested on: HOP-92 NSCLC
# MOLT-4 leukemia = tested on: MOLT-4 leukemia
# SNB-78 CNS = tested on: SNB-78 CNS
# RPMI-8226 leukemia = tested on: RPMI-8226 leukemia
# LXFL 529 NSCLC = tested on: LXFL 529 NSCLC
# NCI-H23 lung = tested on: NCI-H23 lung
# OVCAR-3 ovarian = tested on: OVCAR-3 ovarian
# HCC-2998 colon = tested on: HCC-2998 colon
# UO-31 renal = tested on: UO-31 renal
# HL-60(TB) leukemia = tested on: HL-60(TB) leukemia
# XF 498 CNS = tested on: XF 498 CNS
# CCRF-CEM leukemia = tested on: CCRF-CEM leukemia
# OVCAR-4 ovarian = tested on: OVCAR-4 ovarian
# DMS 114 small cell lung = tested on: DMS 114 small cell lung
# NCI-H226 lung = tested on: NCI-H226 lung
# SR leukemia = tested on: SR leukemia
# OVCAR-8 ovarian = tested on: OVCAR-8 ovarian
# RXF-631 renal = tested on: RXF-631 renal
# DLD-1 colon = tested on: DLD-1 colon
smiles,measurement,setting,value
O=C(CCN(CCO)CCO)Nc1ccc2c(c1)C(=O)c1ccc(NC(=O)CCN(CCO)CCO)cc1C2=O,TGI,UACC-257 melanoma,> 100 µM
same,TGI,786-0 renal,32 µM
same,TGI,TK-10 renal,> 100 µM
same,TGI,A549 NSCLC,> 100 µM
same,TGI,SN12C renal,> 100 µM
same,TGI,LOX IMVI melanoma,56.5 µM
same,TGI,NCI-H460 lung,22.7 µM
same,TGI,KM20L2 colon,> 100 µM
same,TGI,K-562 leukemia,74.4 µM
same,TGI,HCT-15 colon,19.8 µM
same,TGI,UACC-62 melanoma,27.8 µM
same,TGI,U251 CNS,> 100 µM
same,TGI,HOP-62 NSCLC,98.3 µM
same,TGI,KM12 colon,31.2 µM
same,TGI,SK-MEL-2 melanoma,16.8 µM
same,TGI,HOP-18 NSCLC,> 100 µM
same,TGI,SK-MEL-5 melanoma,40.7 µM
same,TGI,DMS 273 small cell lung,22.1 µM
same,TGI,COLO 205 colon,29.5 µM
same,TGI,ACHN renal,> 100 µM
same,TGI,M14 melanoma,38.3 µM
same,TGI,HCT-116 colon,33.2 µM
same,TGI,SW-620 colon,33.4 µM
same,TGI,A498 renal,37.9 µM
same,TGI,CAKI-1 renal,32.2 µM
same,TGI,MALME-3M melanoma,27.9 µM
same,TGI,IGROV1 ovarian,50.7 µM
same,TGI,SF-295 CNS,> 100 µM
same,TGI,SNB-19 CNS,86.3 µM
same,TGI,SF-539 CNS,22.3 µM
same,TGI,EKVX NSCLC,55 µM
same,TGI,SF-268 CNS,60.6 µM
same,TGI,SK-OV-3 ovarian,> 100 µM
same,TGI,OVCAR-5 ovarian,> 100 µM
same,TGI,RXF 393 renal,79.4 µM
same,TGI,NCI-H522 lung,19.7 µM
same,TGI,SK-MEL-28 melanoma,62.6 µM
same,TGI,HT29 colon,> 100 µM
same,TGI,SNB-75 CNS,> 100 µM
same,TGI,M19-MEL melanoma,26.6 µM
same,TGI,HOP-92 NSCLC,> 100 µM
same,TGI,MOLT-4 leukemia,44.9 µM
same,TGI,SNB-78 CNS,54.8 µM
same,TGI,RPMI-8226 leukemia,> 100 µM
same,TGI,LXFL 529 NSCLC,16.2 µM
same,TGI,NCI-H23 lung,> 100 µM
same,TGI,OVCAR-3 ovarian,51.3 µM
same,TGI,HCC-2998 colon,8.52 µM
same,TGI,UO-31 renal,22.1 µM
same,TGI,HL-60(TB) leukemia,45.7 µM
same,TGI,XF 498 CNS,25 µM
same,TGI,CCRF-CEM leukemia,39.5 µM
same,TGI,OVCAR-4 ovarian,> 100 µM
same,TGI,DMS 114 small cell lung,19.6 µM
same,TGI,NCI-H226 lung,44.2 µM
same,TGI,SR leukemia,> 100 µM
same,TGI,OVCAR-8 ovarian,> 100 µM
CN1C(c2ccccc2)CC(=Nc2ccccc2)CC1c1ccccc1 (centres undefined),TGI,UACC-257 melanoma,24.1 µM
same,TGI,786-0 renal,27.7 µM
same,TGI,TK-10 renal,36.9 µM
same,TGI,A549 NSCLC,44.9 µM
same,TGI,LOX IMVI melanoma,16.8 µM
same,TGI,NCI-H460 lung,33.9 µM
same,TGI,RXF-631 renal,67.6 µM
same,TGI,KM20L2 colon,26.5 µM
same,TGI,K-562 leukemia,> 100 µM
same,TGI,HCT-15 colon,29.9 µM
same,TGI,U251 CNS,19.6 µM
same,TGI,HOP-62 NSCLC,34.6 µM
same,TGI,SK-MEL-5 melanoma,22.8 µM
same,TGI,DMS 273 small cell lung,22 µM
same,TGI,COLO 205 colon,22.8 µM
same,TGI,M14 melanoma,27.9 µM
same,TGI,HCT-116 colon,16.4 µM
same,TGI,SW-620 colon,22.9 µM
same,TGI,DLD-1 colon,24.2 µM
same,TGI,CAKI-1 renal,42.3 µM
same,TGI,MALME-3M melanoma,22.9 µM
same,TGI,IGROV1 ovarian,38.4 µM
same,TGI,SF-295 CNS,31.1 µM
same,TGI,SNB-19 CNS,27.8 µM
same,TGI,EKVX NSCLC,56.5 µM
same,TGI,SF-268 CNS,28.7 µM
same,TGI,SK-OV-3 ovarian,8.12 µM
same,TGI,RXF 393 renal,31.4 µM
same,TGI,NCI-H522 lung,17.4 µM
same,TGI,SK-MEL-28 melanoma,23.2 µM
same,TGI,HT29 colon,34.2 µM
same,TGI,SNB-75 CNS,50.4 µM
same,TGI,M19-MEL melanoma,15.7 µM
same,TGI,HOP-92 NSCLC,22 µM
same,TGI,MOLT-4 leukemia,28.7 µM
same,TGI,SNB-78 CNS,37.2 µM
same,TGI,RPMI-8226 leukemia,13.7 µM
same,TGI,LXFL 529 NSCLC,16.4 µM
same,TGI,NCI-H23 lung,39.9 µM
same,TGI,OVCAR-3 ovarian,24 µM
same,TGI,UO-31 renal,47.8 µM
same,TGI,HL-60(TB) leukemia,> 100 µM
same,TGI,CCRF-CEM leukemia,> 100 µM
same,TGI,OVCAR-4 ovarian,31 µM
same,TGI,NCI-H226 lung,25.6 µM
same,TGI,SR leukemia,34.5 µM
same,TGI,OVCAR-8 ovarian,20.6 µM
